Data from patent US7074190B2, “Non-invasive apparatus system for monitoring drug hepatoxicity and uses thereof” (priority 2002, dated 2006).

Test system: adult dogs
Test: Artery blood pressure waveform analysis before and after taking the drug, dog experiment
Format: in vivo
[1] = Code A dog, 500 mg/kg oral, before and after taking the drug (12 hours)
[2] = Code B dog, 1,200 mg/kg subcutaneous injection, 12 hours after taking the drug
[3] = Code B dog, 1,200 mg/kg subcutaneous injection, before and after taking the drug (12 hours)

Procedure: Two adult dogs weighing 12 and 15 kg were used. One (coded A) of them received 500 mg/kg of body weight of acetaminophen oral solution (dissolved in water); and the other one (coded B) received a higher concentration (1,200 mg/kg of body weight) of acetaminophen via subcutaneous injection. After Nembutal was injected and the respirator was put on, the hair on the front legs of the dogs was shaved and a blood pressure waveform sensor was inserted by operation. The waveform of artery blood pressure waveform on brachial position was continuously recorded and analyzed by a computer with a frequency of 100 data per minute. After surgery and before the drug was orally taken or injected, the blood pressure waveform of each dog was measured for two hours as the baseline. After the drug was orally taken or injected, the blood pressure waveform was continuously monitored for analyzing the hepatotoxicity induced by the drug, and blood samples were periodically taken from a tube inserted into the artery for determining the level of hepatotoxicuty.
The definition of parameter altered amount is: (the parameter value after taking the drug—the parameter value before taking the drug)/the parameter value before taking the drug *100%

For `CC(=O)Nc1ccc(O)cc1` [acetaminophen], the “Time parameter Altered Amount T3 = cd” value [1] was “T3 = cd = −20.0 second”, the “Time parameter Altered Amount T4 = de” value [1] was “T4 = de = 23.5 second” and the “Time parameter Altered Amount T5 = ae” value [1] was “T5 = ae = 7.9 second”. For the same molecule, the “Time parameter Altered amount T1 = ab” value [1] was “T1 = ab = −16.7 second”, the “oblique angle parameter Altered amount D1 = (Bb-Aa)/ab” value [1] was “D1 = (Bb-Aa)/ab = 22.7 mmHg/sec” and the “oblique angle parameter Altered amount D2 = (Bb-Cc)/bc” value [1] was “D2 = (Bb-Cc)/bc = −10.2 mmHg/sec”. The “oblique angle parameter Altered amount D3 = (Dd-Cc)/cd” value [1] was “D3 = (Dd-Cc)/cd = 40.0 mmHg/sec”, the “oblique angle parameter Altered amount D4 = (Dd-Ee)/de” value [1] was “D4 = (Dd-Ee)/de = −8.3 mmHg/sec” and the “oblique angle parameter Altered amount D5 = D1 + D2” value [1] was “D5 = D1 + D2 = 11.4 mmHg/sec”. The “oblique angle parameter Altered amount D6 = D3 + D4” value [1] was “D6 = D3 + D4 = 26.2 mmHg/sec”, the “highest altered amount (oblique angle parameter)” value (Code A dog, 500 mg/kg oral, before vs 12 hours after taking the drug, all other parameters lower) was 40% and the “difference between the blood pressure waveforms before and after taking the drug” value (Code A dog, 500 mg/kg oral, before vs after taking the drug for 12 hours (FIG. 5 vs FIG. 6)) was “no significant difference”. The “Oblique angle parameter D1 = (Bb-Aa)/ab” value [2] was “D1 = (Bb-Aa)/ab = 2250 mmHg/sec”, the “Oblique angle parameter D2 = (Bb-Ee)/be” value [2] was “D2 = (Bb-Ee)/be = 1383 mmHg/sec” and the “Oblique angle parameter D3 = (Ff-Ee)/ef” value [2] was “D3 = (Ff-Ee)/ef = 420 mmHg/sec”. For the same molecule, the “Oblique angle parameter D4 = (Ff-Gg)/fg” value [2] was “D4 = (Ff-Gg)/fg = 311 mmHg/sec”, the “Oblique angle parameter D5 = D1 + D2” value [2] was “D5 = D1 + D2 = 3633 mmHg/sec” and the “Oblique angle parameter D6 = D3 + D4” value [2] was “D6 = D3 + D4 = 731 mmHg/sec”. The “Pressure parameter P1 = Aa” value [2] was “P1 = Aa = 16 mmHg”, the “Pressure parameter P2 = Bb” value [2] was “P2 = Bb = 106 mmHg” and the “Pressure parameter P3 = Ee” value [2] was “P3 = Ee = 23 mmHg”. The “Pressure parameter P4 = Ff” value [2] was “P4 = Ff = 44 mmHg”, the “Pressure parameter P5 = Gg” value [2] was “P5 = Gg = 16 mmHg” and the “Ratio parameter RA1 = A6/A5” value [2] was “RA1 = A6/A5 = 0.87”. The “Ratio parameter RA2 = A5/A7” value [2] was “RA2 = A5/A7 = 0.53”, the “Ratio parameter RA3 = A6/A7” value [2] was “RA3 = A6/A7 = 0.47” and the “Ratio parameter RP1 = Ff/Bb” value [2] was “RP1 = Ff/Bb = 0.42”. For the same molecule, the “Ratio parameter RT1 = ab/ag” value [2] was “RT1 = ab/ag = 0.17”, the “Ratio parameter RT2 = ae/ag” value [2] was “RT2 = ae/ag = 0.42” and the “Ratio parameter RT3 = af/ag” value [2] was “RT3 = af/ag = 0.63”. For the same molecule, the “Superficial measure parameter A1 = AabB” value [2] was “A1 = AabB = 2.44 sec. * mmHg”, the “Superficial measure parameter A2 = BbeE” value [2] was “A2 = BbeE = 2.58 sec. * mmHg” and the “Superficial measure parameter A3 = EefF” value [2] was “A3 = EefF = 1.68 sec. * mmHg”. The “Superficial measure parameter A4 = FfgG” value [2] was “A4 = FfgG = 2.70 sec. * mmHg”, the “Superficial measure parameter A5 = A1 + A2” value [2] was “A5 = A1 + A2 = 5.02 sec. * mmHg” and the “Superficial measure parameter A6 = A3 + A4” value [2] was “A6 = A3 + A4 = 4.38 sec. * mmHg”. The “Superficial measure parameter A7 = A5 + A6” value [2] was “A7 = A5 + A6 = 9.40 sec. * mmHg”, the “Time parameter T1 = ab” value [2] was “T1 = ab = 0.04 second” and the “Time parameter T2 = be” value [2] was “T2 = be = 0.06 second”. For the same molecule, the “Time parameter T3 = ef” value [2] was “T3 = ef = 0.05 second”, the “Time parameter T4 = fg” value [2] was “T4 = fg = 0.09 second” and the “Time parameter T5 = ag” value [2] was “T5 = ag = 0.24 second”. For the same molecule, the “number of parameter altered amounts exceeding 100%” value (Code B dog, 1,200 mg/kg subcutaneous injection, TABLE 8) was “six”, the “Oblique angle parameter Altered amount D2 = (Bb-Ee)/be” value [3] was “D2 = (Bb-Ee)/be = 349%” and the “Oblique angle parameter Altered amount D3 = (Ff-Ee)/ef” value [3] was “D3 = (Ff-Ee)/ef = 23%”. For the same molecule, the “Oblique angle parameter Altered amount D4 = (Ff-Gg)/fg” value [3] was “D4 = (Ff-Gg)/fg = 677%”, the “Pressure parameter Altered amount P1 = Aa” value [3] was “P1 = Aa = −85%” and the “Pressure parameter Altered amount P2 = Bb” value [3] was “P2 = Bb = −25%”. The “Pressure parameter Altered amount P3 = Ee” value [3] was “P3 = Ee = −79%”, the “Pressure parameter Altered amount P4 = Ff” value [3] was “P4 = Ff = −65%” and the “Pressure parameter Altered amount P5 = Gg” value [3] was “P5 = Gg = −85%”. For the same molecule, the “Ratio parameter Altered amount RA1 = A6/A5” value [3] was “RA1 = A6/A5 = 123%”, the “Ratio parameter Altered amount RA2 = A5/A7” value [3] was “RA2 = A5/A7 = 89%” and the “Ratio parameter Altered amount RA3 = A6/A7” value [3] was “RA3 = A6/A7 = −35%”. The “Ratio parameter Altered amount RP1 = Ff/Bb” value [3] was “RP1 = Ff/Bb = −51%”, the “Ratio parameter Altered amount RT1 = ab/ag” value [3] was “RT1 = ab/ag = 143%” and the “Ratio parameter Altered amount RT2 = ae/ag” value [3] was “RT2 = ae/ag = 55%”. The “Ratio parameter Altered amount RT3 = af/ag” value [3] was “RT3 = af/ag = 85%”, the “Superficial measure parameter Altered amount A1 = AabB” value [3] was “A1 = AabB = −62%” and the “Superficial measure parameter Altered amount A2 = BbeE” value [3] was “A2 = BbeE = −85%”. The “Superficial measure parameter Altered amount A3 = EefF” value [3] was “A3 = EefF = −72%”, the “Superficial measure parameter Altered amount A4 = FfgG” value [3] was “A4 = FfgG = −95%” and the “Superficial measure parameter Altered amount A5 = A1 + A2” value [3] was “A5 = A1 + A2 = −47%”. For the same molecule, the “Superficial measure parameter Altered amount A6 = A3 + A4” value [3] was “A6 = A3 + A4 = −61%”, the “Superficial measure parameter Altered amount A7 = A5 + A6” value [3] was “A7 = A5 + A6 = −84%” and the “Time parameter Altered amount T1 = ab” value [3] was “T1 = ab = −20%”. The “Time parameter Altered amount T2 = be” value [3] was “T2 = be = −54%”, the “Time parameter Altered amount T3 = ef” value [3] was “T3 = ef = 0%” and the “Time parameter Altered amount T4 = fg” value [3] was “T4 = fg = −80%”. For the same molecule, the “Time parameter Altered amount T5 = ag” value [3] was “T5 = ag = −64%”, the “oblique angle parameter Altered amount D1 = (Bb-Aa)/ab” value [3] was “D1 = (Bb-Aa)/ab = 162%” and the “oblique angle parameter Altered amount D5 = D1 + D2” value [3] was “D5 = D1 + D2 = 211%”. The “oblique angle parameter Altered amount D6 = D3 + D4” value [3] was “D6 = D3 + D4 = 92%”.
